This assay deals with rat small-intestinal brush border membrane vesicles. Description: Inhibitory effect on 33PO4 uptake into rat small-intestinal brush border membrane vesicles (rapid filtration method). It is filed as biochemical, Wistar female rat. The note with it: 1 µM test compound; 33PO4 uptake into rat small-intestinal BBMVs, 60 seconds. The procedure: The ^33PO4 transport activity of the small-intestinal BBMVs was determined by the rapid filtration method. […] Then, ice-cold buffer C (110 mM NaCl, 1 mM KH2PO4, and 10 mM HEPES (pH 7.5)) was added to each reaction mixture, which was immediately suction-filtered through a Millipore filter. The filter was washed with buffer C, and each sample was then dissolved in a liquid scintillator. The amount of ^33PO4 uptake into BBMVs was measured using a liquid scintillation counter. […]

For `Cc1cc(NC(=O)C2=C(O)[C@@H]3CCCCN3N(Cc3cccc(F)c3)C2=O)c(C(F)(F)F)o1` [Example 16], the “Rate of uptake inhibition (%) (1 µM)” value was 38%.
`COc1cccc(-c2cc(C(F)(F)F)ccc2NC(=O)C2=C(O)[C@@]3(C)CCCN3N(Cc3cccc(F)c3F)C2=O)n1` [Example 93]: the “Rate of uptake inhibition (%) (1 µM)” value is listed as 56%.
With `Cc1c(-c2cc(C(F)(F)F)ccc2NC(=O)C2=C(O)[C@H](C(C)(C)C)N(C)N(Cc3ccc(OCCN4CCOCC4)c(F)c3F)C2=O)ncnc1C(F)(F)F` [Example 278], the “Rate of uptake inhibition (%) (1 µM)” value turned out to be 69%.
For the compound `CN1N(Cc2cccc(F)c2F)C(=O)C(C(=O)Nc2ccc(C(F)(F)F)cc2-c2cc(C(F)(F)F)ncn2)=C(O)C12CCC2` [Example 300], the “Rate of uptake inhibition (%) (1 µM)” value worked out at 74%.
`CN1N(Cc2ccc(OCCN3CCOC(C)(C)C3)c(F)c2F)C(=O)C(C(=O)Nc2ccc(C(F)(F)F)cc2-c2cc(C(F)(F)F)ncn2)=C(O)C12CCC2` [Example 342]: the “Rate of uptake inhibition (%) (1 µM)” value stood at 43%.
For `CN1[C@@H](C(C)(C)C)C(O)=C(C(=O)Nc2ccc(C(F)(F)F)cc2-c2ccnc(C#N)c2)C(=O)N1Cc1ccc(OCCN2CCOCC2)c(F)c1F` [Example 271], the “Rate of uptake inhibition (%) (1 µM)” value is reported as 60%.
`CC1(C)C(O)=C(C(=O)Nc2ccc(C(F)(F)F)cc2-c2cc(C(F)(F)F)ncn2)C(=O)N(Cc2cccc(F)c2F)N1c1ccccc1` [Example 299]: the “Rate of uptake inhibition (%) (1 µM)” value turned out to be 45%.
With `CN1N(Cc2ccc(OCCOCCNC(=O)[C@@H](O)[C@H](O)[C@@H](O)[C@@H](O)CO)c(F)c2F)C(=O)C(C(=O)Nc2ccc(C(F)(F)F)cc2-c2cc(C(F)(F)F)ncn2)=C(O)C12CCCC2` [Example 427, 7-[[2,3-Difluoro-4-[2-[2-[[(2S,3R,4S,5S)-2,3,4,5,6-pentahydroxyhexanoyl]amino]ethoxy]ethoxy]phenyl]methyl]-10-hydroxy-6-methyl-8-oxoN-[4-(trifluoromethyl)-2-[6-(trifluoromethyl)pyrimidin-4-yl]phenyl]-6,7-diazaspiro[4.5]dec-9-ene-9-carboxamide], the “Rate of uptake inhibition (%) (1 µM)” value is reported as 12%.
In the case of `C[C@]12CCCN1N(Cc1cc(F)c(F)c(F)c1)C(=O)C(C(=O)Nc1cc(F)c(Br)c(F)c1)=C2O` [Example 197], the “Rate of uptake inhibition (%) (1 µM)” value was found to be 82%.
In the case of “(4aS)-1-[(2,3-Difluorophenyl)methyl]-6,6-difluoro-4-hydroxy-N-[5-methyl-2-(trifluoromethyl)furan-3-yl]-2-oxo-5,7-dihydro-4aH-pyrrolo[1,2-b]pyridazine-3-carboxamide [Example 5]”, the “Rate of uptake inhibition (%) (1 µM)” value stood at 54%.
Turning to `C[C@]12CCCN1N(Cc1cccc(F)c1F)C(=O)C(C(=O)Nc1ccc(C(F)(F)F)cc1-c1cncc(C#N)c1)=C2O` [Example 82], the “Rate of uptake inhibition (%) (1 µM)” value was determined as 100%.
As for `COCCOCCOc1ccc(CN2C(=O)C(C(=O)Nc3ccc(C(F)(F)F)cc3-c3cc(C(F)(F)F)ncn3)=C(O)C3(CCC3)N2C)c(F)c1F` [Example 401], the “Rate of uptake inhibition (%) (1 µM)” value was 39%.
As for `Cc1cc(NC(=O)C2=C(O)[C@@H]3CCCN3N(Cc3cccc(F)c3)C2=O)c(C(F)(F)F)o1` [Example 1, (4aS)-1-[(3-Fluorophenyl)methyl]-4-hydroxy-N-[5-methyl-2-(trifluoromethyl)furan-3-yl]-2-oxo-4a,5,6,7-tetrahydropyrrolo[1,2-b]pyridazine-3-carboxamide], the “Rate of uptake inhibition (%) (1 µM)” value is reported as 28%.
For the compound `CN1N(Cc2ccc(OCCN3CCC(N4CCOCC4)CC3)c(F)c2F)C(=O)C(C(=O)Nc2ccc(C(F)(F)F)cc2-c2cc(C(F)(F)F)ncn2)=C(O)C12CCC2` [Example 358], the “Rate of uptake inhibition (%) (1 µM)” value is 34%.
The result for “(4aR)-4a-Ethyl-1-[(3-fluorophenyl)methyl]-4-hydroxy-N-[5-methyl-2-(trifluoromethyl)furan-3-yl]-2-oxo-6,7-dihydro-5H-pyrrolo[1,2-b]pyridazine-3-carboxamide [Example 9]” reads 63%.
As to `Cc1c(-c2cc(C(F)(F)F)ccc2NC(=O)C2=C(O)C3(CCCCC3)N(C)N(Cc3ccc(OCCN4CCOCC4)c(F)c3F)C2=O)ncnc1C(F)(F)F` [Example 296], the “Rate of uptake inhibition (%) (1 µM)” value worked out at 17%.
On to `C[C@]12CCCN1N(Cc1cccc(F)c1Cl)C(=O)C(C(=O)Nc1ccc(C(F)(F)F)cc1-c1ccc(C(F)(F)F)nc1)=C2O` [Example 201], for which the “Rate of uptake inhibition (%) (1 µM)” value is reported as 77%.
For the compound `CN1N(Cc2ccc(OCCN3C4CCC3COC4)c(F)c2F)C(=O)C(C(=O)Nc2ccc(C(F)(F)F)cc2-c2cc(C(F)(F)F)ncn2)=C(O)C12CCCC2` [Example 367], the “Rate of uptake inhibition (%) (1 µM)” value is on record as 43%.
As for `COC(=O)c1cccc(CN2C(=O)C(C(=O)Nc3ccc(C(F)(F)F)cc3-c3cc(C(F)(F)F)ncn3)=C(O)[C@@]3(C)CCCN23)c1` [Example 183], the “Rate of uptake inhibition (%) (1 µM)” value came to 82%.
`C#Cc1ccc(CN2C(=O)C(C(=O)Nc3ccc(C(F)(F)F)cc3-c3cc(C(F)(F)F)ncn3)=C(O)[C@@]3(C)CCCN23)c(F)c1F` [Example 126, (4aR)-1-[(4-Ethynyl-2,3-difluorophenyl)methyl]-4-hydroxy-4a-methyl-2-oxo-N-[4-(trifluoromethyl)-2-[6-(trifluoromethyl)pyrimidin-4-yl]phenyl]-6,7-dihydro-5H-pyrrolo[1.2-b]pyridazine-3-carboxamide]: the “Rate of uptake inhibition (%) (1 µM)” value is 71%.
Turning to `CN(CCOCCOCCOCCOCCOc1ccc(CN2C(=O)C(C(=O)Nc3ccc(C(F)(F)F)cc3-c3cc(C(F)(F)F)ncn3)=C(O)C3(CCCC3)N2C)c(F)c1F)C[C@@H](O)[C@H](O)[C@@H](O)[C@@H](O)CO` [Example 421, 7-[[2,3-Difluoro-4-[2-[2-[2-[2-[2-[methyl-[(2R,3S,4S,5S)-2,3,4,5,6-pentahydroxyhexyl]amino]ethoxy]ethoxy]ethoxy]ethoxy]ethoxy]phenyl]methyl]-10-hydroxy-6-methyl-8-oxo-N-[4-(trifluoromethyl)-2-[6-(trifluoromethyl)pyrimidin-4-yl]phenyl]-6,7-diazaspiro[4.5]dec-9-ene-9-carboxamide], the “Rate of uptake inhibition (%) (1 µM)” value amounted to 24%.
In the case of `CN1N(Cc2ccc(OCCCOC[C@H](O)CO)c(F)c2F)C(=O)C(C(=O)Nc2ccc(C(F)(F)F)cc2-c2ccc(C(F)(F)F)nc2)=C(O)C12CCCC2` [Example 386], the “Rate of uptake inhibition (%) (1 µM)” value is 36%.
Next, `CN1N(Cc2ccc(OCCN3CCN(CCCO)CC3)c(F)c2F)C(=O)C(C(=O)Nc2ccc(C(F)(F)F)cc2-c2cc(C(F)(F)F)ncn2)=C(O)C12CCC2` [Example 362]: 17%; `C[C@]12CCCN1N(Cc1cccc(F)c1F)C(=O)C(C(=O)Nc1ccc(C(F)(F)F)cc1-c1cnc(Cl)cn1)=C2O` [Example 74]: 82%.
Consider `COCCN1CC(Oc2ccc(CN3C(=O)C(C(=O)Nc4ccc(C(F)(F)F)cc4-c4cc(C(F)(F)F)ncn4)=C(O)C4(CCC4)N3C)c(F)c2F)C1` [Example 406, 6-[[2,3-Difluoro-4-[1-(2-methoxyethyl)azetidin-3-yl]oxyphenyl]methyl]-9-hydroxy-5-methyl-7-oxo-N-[4-(trifluoromethyl)-2-[6-(trifluoromethl)pyrimidin-4-yl]phenyl]-5,6-diazaspiro[3.5]non-8-ene-8-carboxamide], for which the “Rate of uptake inhibition (%) (1 µM)” value was 27%.
Turning to `C[C@]12CCCN1N(Cc1cccc(F)c1F)C(=O)C(C(=O)Nc1ccc(Br)cc1)=C2O` [Example 77], the “Rate of uptake inhibition (%) (1 µM)” value is 80%.
As for `C[C@]12CCCN1N(Cc1ccc(OCCN3CCOCC3)c(F)c1F)C(=O)C(C(=O)Nc1ccc(C(F)(F)F)nc1-c1cncc(C(F)(F)F)c1)=C2O` [Example 106], the “Rate of uptake inhibition (%) (1 µM)” value was 79%.
With `COCCOCCOCCCCCCCCN1C(=O)C(C(=O)Nc2ccc(C(F)(F)F)cc2-c2cc(C(F)(F)F)ncn2)=C(O)[C@@]2(C)CCCN12` [Example 236, (4aR)-4-Hydroxy-1-[8-[2-(2-methoxyethoxy)ethoxy]octyl]-4a-methyl-2-oxo-N-[4-(trifluoromethyl)-2-[6-(trifluoromethyl)pyrimidine-4-yl]phenyl]-6,7-dihydro-5H-pyrrolo[1,2-b]pyridazine-3-carboxamide], the “Rate of uptake inhibition (%) (1 µM)” value worked out at 60%.
Consider `Cc1nc(NC(=O)C2=C(O)C3(CCC3)N(C)N(Cc3cccc(F)c3F)C2=O)ccc1Br` [Example 259], for which the “Rate of uptake inhibition (%) (1 µM)” value is given as 52%.
As to `CN1N(Cc2cccc(F)c2F)C(=O)C(C(=O)Nc2ccc(C(F)(F)F)cc2-c2ncnc(C#N)c2Cl)=C(O)C1(C)C` [Example 312], the “Rate of uptake inhibition (%) (1 µM)” value is 74%.
Take `CN1N(Cc2ccc(OCCCCOCCO)c(F)c2F)C(=O)C(C(=O)Nc2ccc(C(F)(F)F)cc2-c2cc(C(F)(F)F)ncn2)=C(O)C12CCCC2` [Example 396]: the “Rate of uptake inhibition (%) (1 µM)” value is 38%.
Take `COCCN(C)CCOCCOCCOCCOc1ccc(CN2C(=O)C(C(=O)Nc3ccc(C(F)(F)F)cc3-c3cc(C(F)(F)F)ncn3)=C(O)C3(CCCC3)N2C)c(F)c1F` [Example 431]: the “Rate of uptake inhibition (%) (1 µM)” value came out at 26%.
Take `CN1N(Cc2ccc(OCCOCCNCC(O)CO)c(F)c2F)C(=O)C(C(=O)Nc2ccc(C(F)(F)F)cc2-c2cc(C(F)(F)F)ncn2)=C(O)C12CCCC2` (stereo not shown) [Example 419, 7-[[4-[2-[2-(2,3-Dihydroxypropylamino)ethoxy]ethoxy]-2,3-difluorophenyl]methyl]-10-hydroxy-6-methyl-8-oxo-N-[4-(trifluoromethyl)-2-[6-(trifluoromethyl)pyrimidin-4-yl]phenyl]-6,7-diazaspiro[4.5]dec-9-ene-9-carboxamide]: the “Rate of uptake inhibition (%) (1 µM)” value was determined as 22%.
Consider `C[C@]12CCCN1N(Cc1cccc(F)c1F)C(=O)C(C(=O)Nc1ccc(Br)cn1)=C2O` [Example 78], for which the “Rate of uptake inhibition (%) (1 µM)” value was determined as 71%.

Source of the values: patent EP2975030B1, “DIHYDROPYRIDAZINE-3,5-DIONE DERIVATIVE” (Chugai Seiyaku Kabushiki Kaisha, priority 2013, dated 2014).
